# Earlier results in article PMC3215888 (Cancer Chemotherapy and Pharmacology, 2011).
# Tested on: Aurora kinase A mutation (T217D)
# Settings: cited from earlier work
smiles,measurement,value
"O=C(O)c1ccc(Nc2ncc3c(n2)-c2ccc(Cl)cc2C(c2c(F)cccc2F)=NC3)cc1 [MLN8054, reference compound]",inhibition of Aurora kinase A T217D mutant,impervious
